Data on two molecules can be found in ChEMBL document CHEMBL1150293, “The pyridoxamine action on Amadori compounds: A reexamination of its scavenging capacity and chelating effect” (Bioorg Med Chem, 2008).

A short description of the series: Aqueous stability assessed as half life at pH 7.4 by HPLC. It is filed as physicochemical. The conditions noted are these: aqueous solution.

Turning to `O=C(CN1CCOCC1)[C@@H](O)[C@H](O)[C@H](O)CO`, the half-life was 92 h.

Regarding `O=C(CN[C@H](Cc1c[nH]c2ccccc12)C(=O)O)[C@@H](O)[C@H](O)[C@H](O)CO`, the half-life was 25 h.

One may read the half-life as the time in which the quantity being followed falls by half.
